Measured values taken from PubChem BioAssay AID330 (DTP/NCI, 2004).
Values joined by “and” are separate entries in the source; they are usually repeats but may differ in a detail not shown here. Identical values can stand only once. Inconclusive results and toxic doses are left out.

Tested on: P388 leukemia ip, CD2F1 mice, survival T/C
Assay: NCI In Vivo Anticancer Drug Screen. Data for tumor model P388 Leukemia (intraperitoneal) in CD2F1 (CDF1) mice
Details: endpoint: median survival time, higher = longer survival
Procedure, shortened: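 Mice carrying the transplanted tumor received test compound or vehicle. Survival was recorded in each group, and the value is the treated-group measurement divided by that of the vehicle-treated control group.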

[1] = dose: 60.0 mg/kg/injection, schedule: Q01DX005 (ip), vehicle: saline
[2] = dose: 120.0 mg/kg/injection, schedule: Q01DX005 (ip), vehicle: saline
[3] = dose: 240.0 mg/kg/injection, schedule: Q01DX005 (ip), vehicle: saline
[4] = dose: 50.0 mg/kg/injection, schedule: Q01DX009 (ip), vehicle: Klucel (hydroxypropylcellulose) (HPC)
[5] = dose: 100.0 mg/kg/injection, schedule: Q01DX009 (ip), vehicle: Klucel (hydroxypropylcellulose) (HPC)
[6] = dose: 100.0 mg/kg/injection, schedule: Q01DX001 (ip), vehicle: Klucel (hydroxypropylcellulose) (HPC)
[7] = dose: 200.0 mg/kg/injection, schedule: Q01DX001 (ip), vehicle: Klucel (hydroxypropylcellulose) (HPC)
[8] = dose: 400.0 mg/kg/injection, schedule: Q01DX001 (ip), vehicle: Klucel (hydroxypropylcellulose) (HPC)
[9] = dose: 100.0 mg/kg/injection, schedule: Q04DX003 (ip), vehicle: saline with Tween-80
[10] = dose: 200.0 mg/kg/injection, schedule: Q04DX003 (ip), vehicle: saline with Tween-80
[11] = dose: 400.0 mg/kg/injection, schedule: Q04DX003 (ip), vehicle: saline with Tween-80
[12] = dose: 50.0 mg/kg/injection, schedule: Q04DX002 (ip), vehicle: saline with Tween-80

With `COCC1=C(C)CC(CC(=O)OC)C1=O` (configuration not stated) the T/C [1] was 98 % of control, the T/C [2] was 98 % of control and the T/C [3] was 101 % of control.

With `CCC1=C[C@H]2CN(CCc3c([nH]c4cc(Br)ccc34)[C@@](C(=O)OC)(c3cc4c(cc3OC)N(C)[C@H]3[C@@](O)(C(=O)OC)[C@H](OC(C)=O)[C@]5(CC)C=CCN6CC[C@]43[C@@H]65)C2)C1` the T/C (dose: 1.0 mg/kg/injection, schedule: Q01DX001 (ip), vehicle: water) was 113 % of control, the T/C (dose: 2.0 mg/kg/injection, schedule: Q01DX001 (ip), vehicle: water) was 115 % of control and the T/C (dose: 3.9 mg/kg/injection, schedule: Q01DX001 (ip), vehicle: water) was 118 % of control. For the same compound, the T/C (dose: 4.0 mg/kg/injection, schedule: Q01DX001 (ip), vehicle: water) was 122 % of control, the T/C (dose: 6.5 mg/kg/injection, schedule: Q01DX001 (ip), vehicle: water) was 119 % of control and the T/C (dose: 16.0 mg/kg/injection, schedule: Q01DX001 (ip), vehicle: water) was 153 % of control. For the same compound, the T/C (dose: 18.0 mg/kg/injection, schedule: Q01DX001 (ip), vehicle: water) was 169 % of control, the T/C (dose: 30.0 mg/kg/injection, schedule: Q01DX001 (ip), vehicle: water) was 173 % of control and the T/C (dose: 32.0 mg/kg/injection, schedule: Q01DX001 (ip), vehicle: water) was 185 % of control.

With `Cc1ccc(S(=O)(=O)NCCCc2ccccc2)cc1` the T/C [4] was 118 % of control, the T/C [5] was 123 % of control and the T/C (dose: 200.0 mg/kg/injection, schedule: Q01DX009 (ip), vehicle: Klucel (hydroxypropylcellulose) (HPC)) was 115 % of control.

In the case of `Cc1cc(=O)oc2cc(OC(=O)Nc3ccc(Cl)cc3C(F)(F)F)ccc12`, the T/C (dose: 60.0 mg/kg/injection, schedule: Q01DX005 (ip), vehicle: saline with Tween-80) is reported as 90 % of control and the T/C (dose: 120.0 mg/kg/injection, schedule: Q01DX005 (ip), vehicle: saline with Tween-80) is reported as 95 % of control.

For `CN1C(=O)Cn2c(n[nH]c(=O)c2=O)-c2cc(Cl)ccc21`, the T/C [4] was 95 % of control and the T/C [5] was 86 % of control.

For `CCCCn1c(C)nc2c(N)cc(C(F)(F)F)cc21`, the T/C (dose: 3.12 mg/kg/injection, schedule: Q01DX009 (ip), vehicle: Klucel (hydroxypropylcellulose) (HPC)) was 100 % of control and 92 % of control, the T/C (dose: 6.25 mg/kg/injection, schedule: Q01DX009 (ip), vehicle: Klucel (hydroxypropylcellulose) (HPC)) was 105 % of control and 87 % of control and the T/C (dose: 12.5 mg/kg/injection, schedule: Q01DX009 (ip), vehicle: Klucel (hydroxypropylcellulose) (HPC)) was 121 % of control and 97 % of control. For the same compound, the T/C (dose: 25.0 mg/kg/injection, schedule: Q01DX001 (ip), vehicle: Klucel (hydroxypropylcellulose) (HPC)) was 111 % of control, the T/C (dose: 25.0 mg/kg/injection, schedule: Q01DX009 (ip), vehicle: Klucel (hydroxypropylcellulose) (HPC)) was 107 % of control and 89 % of control and 93 % of control and the T/C (dose: 50.0 mg/kg/injection, schedule: Q01DX001 (ip), vehicle: Klucel (hydroxypropylcellulose) (HPC)) was 115 % of control. For the same compound, the T/C [4] was 101 % of control, the T/C [6] was 115 % of control and the T/C [5] was 105 % of control. The T/C [7] was 114 % of control and the T/C [8] was 118 % of control.

With `CCCCCCCCCCCCCCCCNc1cccc2ccccc12` the T/C (dose: 100.0 mg/kg/injection, schedule: Q01DX009 (ip), vehicle: saline sonified) was 95 % of control, the T/C (dose: 100.0 mg/kg/injection, schedule: Q01DX009 (ip), vehicle: saline with Tween-80) was 100 % of control and the T/C [9] was 95 % of control. For the same compound, the T/C (dose: 200.0 mg/kg/injection, schedule: Q01DX009 (ip), vehicle: saline sonified) was 105 % of control, the T/C (dose: 200.0 mg/kg/injection, schedule: Q01DX009 (ip), vehicle: saline with Tween-80) was 90 % of control and the T/C [10] was 86 % of control. The T/C (dose: 400.0 mg/kg/injection, schedule: Q01DX009 (ip), vehicle: saline sonified) was 95 % of control, the T/C (dose: 400.0 mg/kg/injection, schedule: Q01DX009 (ip), vehicle: saline with Tween-80) was 90 % of control and the T/C [11] was 95 % of control.

For `Cc1ccc(S(=O)(=O)NN=C(C(=O)O)C(=O)O)cc1`, the T/C (dose: 12.5 mg/kg/injection, schedule: Q01DX009 (ip), vehicle: distilled water + Tween-80) was 101 % of control, the T/C (dose: 25.0 mg/kg/injection, schedule: Q01DX009 (ip), vehicle: distilled water + Tween-80) was 102 % of control and the T/C (dose: 50.0 mg/kg/injection, schedule: Q01DX009 (ip), vehicle: distilled water + Tween-80) was 100 % of control. For the same compound, the T/C (dose: 200.0 mg/kg/injection, schedule: Q01DX009 (ip), vehicle: distilled water + Tween-80) was 90 % of control.

For `COc1ccc2c(c1O)-c1cc(O)cc3c1C(C2)NCC3` (configuration not stated), the T/C (dose: 0.32 mg/kg/injection, schedule: Q04DX003 (ip), vehicle: DMSO) was 98 % of control, the T/C (dose: 0.63 mg/kg/injection, schedule: Q04DX003 (ip), vehicle: DMSO) was 95 % of control and the T/C (dose: 1.25 mg/kg/injection, schedule: Q04DX003 (ip), vehicle: DMSO) was 99 % of control. The T/C (dose: 2.5 mg/kg/injection, schedule: Q04DX003 (ip), vehicle: DMSO) was 98 % of control and the T/C (dose: 5.0 mg/kg/injection, schedule: Q04DX003 (ip), vehicle: DMSO) was 100 % of control.

For `C/C=C1\C[N+]2(C)C3CC1C(C[O-])(C(=O)OC)C2Cc1c3[nH]c2ccccc12` (configuration not stated), the T/C (dose: 0.75 mg/kg/injection, schedule: Q01DX005 (ip), vehicle: Klucel (hydroxypropylcellulose) (HPC)) was 97 % of control, the T/C (dose: 1.5 mg/kg/injection, schedule: Q01DX005 (ip), vehicle: Klucel (hydroxypropylcellulose) (HPC)) was 91 % of control and the T/C (dose: 3.0 mg/kg/injection, schedule: Q01DX005 (ip), vehicle: Klucel (hydroxypropylcellulose) (HPC)) was 96 % of control. For the same compound, the T/C (dose: 6.0 mg/kg/injection, schedule: Q01DX005 (ip), vehicle: Klucel (hydroxypropylcellulose) (HPC)) was 92 % of control.

In the case of `CC(C)NC(=O)OCc1c(COC(=O)NC(C)C)c(-c2ccc(Cl)c(Cl)c2)n2c1CS(=O)(=O)C2`, the T/C (dose: 6.25 mg/kg/injection, schedule: Q01DX005 (ip), vehicle: saline with Tween-80) is reported as 101 % of control, the T/C (dose: 12.5 mg/kg/injection, schedule: Q01DX005 (ip), vehicle: saline with Tween-80) is reported as 100 % of control and 87 % of control and the T/C (dose: 50.0 mg/kg/injection, schedule: Q01DX005 (ip), vehicle: saline with Tween-80) is reported as 86 % of control.

For `O=C(Nc1ccccc1)c1cc(Cl)ccc1O`, the T/C [9] was 100 % of control, the T/C [10] was 100 % of control and the T/C [11] was 100 % of control.

In the case of `C=C=CCC(=O)N1CCCC1`, the T/C [12] is reported as 99 % of control, the T/C (dose: 100.0 mg/kg/injection, schedule: Q04DX002 (ip), vehicle: saline with Tween-80) is reported as 101 % of control and the T/C (dose: 200.0 mg/kg/injection, schedule: Q04DX002 (ip), vehicle: saline with Tween-80) is reported as 104 % of control.

With `C=CCOc1ccncc1` the T/C (dose: 12.5 mg/kg/injection, schedule: Q01DX009 (ip), vehicle: saline with Tween-80) was 100 % of control, the T/C (dose: 25.0 mg/kg/injection, schedule: Q01DX009 (ip), vehicle: saline with Tween-80) was 95 % of control and the T/C (dose: 50.0 mg/kg/injection, schedule: Q01DX009 (ip), vehicle: saline with Tween-80) was 90 % of control.

With `CCN(CC)CCC(O)c1ccc(Cl)c2ccccc12` (configuration not stated) the T/C (dose: 50.0 mg/kg/injection, schedule: Q01DX005 (ip), vehicle: saline) was 106 % of control and the T/C (dose: 100.0 mg/kg/injection, schedule: Q01DX005 (ip), vehicle: saline) was 101 % of control.

With `CC(C)c1cc(C(=O)[O-])c(O)c(C(C)C)c1.CC(C)c1cc(C(=O)[O-])c(O)c(C(C)C)c1.CC1OC(O[C@H]2/C=C/C=C/C=C/C=C/C=C/C=C/C=C/C(C)[C@@H](O)C(C)C(C)OC(=O)C[C@H](O)C[C@H](O)CC[C@@H](O)[C@H](O)C[C@H](O)C[C@]3(O)CC(O)[C@@H](C(=O)O)[C@H](C2)O3)C(O)C(N)C1O.[Cu+2]` (some centres not stated) the T/C (dose: 12.5 mg/kg/injection, schedule: Q04DX002 (ip), vehicle: saline with Tween-80) was 103 % of control, the T/C (dose: 25.0 mg/kg/injection, schedule: Q04DX002 (ip), vehicle: saline with Tween-80) was 97 % of control and the T/C [12] was 91 % of control.

With `C=CCOc1cc2c(cc1OCC=C)C(=O)c1cc3c(cc1C2=O)OCO3` the T/C (dose: 7.5 mg/kg/injection, schedule: Q01DX005 (ip), vehicle: saline with Tween-80) was 95 % of control and the T/C (dose: 15.0 mg/kg/injection, schedule: Q01DX005 (ip), vehicle: saline with Tween-80) was 93 % of control.

With `COc1ccc(/C=C/C2=CC(=O)CC(/C=C/c3ccc(OC)c(OC)c3)C2)cc1OC` (configuration not stated) the T/C [6] was 89 % of control, the T/C [7] was 100 % of control and the T/C [8] was 97 % of control.

`CCC[C@@H](O)CC(=O)N[C@@H](CO)c1ccccc1` was tested, and the T/C [1] was 96 % of control, the T/C [2] was 95 % of control and the T/C [3] was 96 % of control.
